In the experiment the target is Cyclin-dependent kinase 2 (Homo sapiens) (UniProt P24941). Description: Inhibition of CDK2.

The text below walks through data of BindingDB's records for doi:10.1016/j.bmcl.2009.02.015 (Pfizer, 2009).

Consider `COc1ccc2sc3c(c2c1)NC[C@@H](CN)NC3=O` [(R)-7-Aminomethyl-3-methoxy-5,6,7,8-tetrahydro-10-thia-5,8-diaza-benzo[a]azulen-9-one], for which the IC50 was 146 nM.
Under `COCCOc1ccc2sc3c(c2c1)NC[C@@H](C)NC3=O` [(R)-3-(2-Methoxy-ethoxy)-7-methyl-5,6,7,8-tetrahydro-10-thia-5,8-diaza-benzo[a]azulen-9-one] stands 81 nM; under `COc1ccc2sc3c(c2c1)CCCNC3=O` [3-Methoxy-5,6,7,8-tetrahydro-10-thia-8-aza-benzo[a]azulen-9-one], 360 nM; under `COC(=O)COc1ccc2sc3c(c2c1)NC[C@@H](C)NC3=O` [((R)-7-Methyl-9-oxo-6,7,8,9-tetrahydro-5H-10-thia-5,8-diaza-benzo[a]azulen-3-yloxy)-acetic acid methyl ester], 3090 nM.
Under `CCCNC[C@@H]1CNc2c(sc3ccc(OC)cc23)C(=O)N1` [(R)-3-Methoxy-7-propylaminomethyl-5,6,7,8-tetrahydro-10-thia-5,8-diaza-benzo[a]azulen-9-one] stands 2600 nM; under `COc1cccc(COc2ccc3sc4c(c3c2)NC[C@@H](C)NC4=O)c1` [(R)-3-(3-Methoxy-benzyloxy)-7-methyl-5,6,7,8-tetrahydro-10-thia-5,8-diaza-benzo[a]azulen-9-one], 64 nM; under `C[C@@H]1CNc2c(sc3ccc(O)cc23)C(=O)N1` [(R)-3-Hydroxy-7-methyl-5,6,7,8-tetrahydro-10-thia-5,8-diaza-benzo[a]azulen-9-one], 26 nM.
Compound `COc1ccc2sc3c(c2c1)SCCNC3=O` yielded an IC50 of 150 nM.
The same measure for `COc1ccc2sc3c(c2c1)NC[C@@H](CO)NC3=O` [(S)-7-Hydroxymethyl-3-methoxy-5,6,7,8-tetrahydro-10-thia-5,8-diaza-benzo[a]azulen-9-one]: 25 nM.
The same measure for `CCNC[C@@H]1CNc2c(sc3ccc(OC)cc23)C(=O)N1` [(R)-7-Ethylaminomethyl-3-methoxy-5,6,7,8-tetrahydro-10-thia-5,8-diaza-benzo[a]azulen-9-one]: 3100 nM.
For `COc1ccc2sc3c(c2c1)NC[C@@H](CNCc1ccccc1)NC3=O` [(R)-7-(Benzylamino-methyl)-3-methoxy-5,6,7,8-tetrahydro-10-thia-5,8-diaza-benzo[a]azulen-9-one], the IC50 is 2700 nM. This IC50 and that of the compound before are within 1.5-fold of each other.
Under `CC(C)COc1ccc2sc3c(c2c1)NC[C@@H](C)NC3=O` [(R)-3-Isobutoxy-7-methyl-5,6,7,8-tetrahydro-10-thia-5,8-diaza-benzo[a]azulen-9-one] stands 11 nM; under `COc1ccc2sc3c(c2c1)NCCNC3=O` [3-Methoxy-5,6,7,8-tetrahydro-10-thia-5,8-diaza-benzo[a]azulen-9-one], 160 nM.
The same measure for `COc1ccc2sc3c(c2c1)NC[C@@H](CN(C)Cc1ccccc1)NC3=O` [(S)-7-[(Benzyl-methyl-amino)-methyl]-3-methoxy-5,6,7,8-tetrahydro-10-thia-5,8-diaza-benzo[a]azulen-9-one]: 3170 nM; for `C[C@@H]1CNc2c(sc3ccc(OCC4CC4)cc23)C(=O)N1` [(R)-3-Cyclopropylmethoxy-7-methyl-5,6,7,8-tetrahydro-10-thia-5,8-diaza-benzo[a]azulen-9-one]: 52 nM.
